Here are results for three compounds from ChEMBL document CHEMBL3870327, “Thioxylated cyclosporin A for studying protein-drug interactions” (Bioorg Med Chem Lett, 2016).

Activity calls are given as the source filed them. No cut-off for these calls is given here. *1 amine or outer side, *2 acyl side, *3 side chain or, on linkers, in order; H or OH if unused. Where a SMILES comes first, the peptide text is derived from it. [ ]: non-standard residue; d: D form. X1 = CC(C)C[C@@H](C(=S)N[C@H](C(=O)[*:2])C(C)C)N(C)[*:1]; AlaΨ(CSNH)dAla = C[C@H](N[*:1])C(=S)N[C@H](C)C(=O)[*:2]; MeBmt = C/C=C/C[C@@H](C)[C@@H](O)[C@H](NC)C(=O)O; NMeL = CN[C@@H](CC(C)C)C(=O)O; NMeV = CN[C@H](C(=O)O)C(C)C; Abu = CC[C@H](N)C(=O)O; Sar = CNCC(=O)O

For assay [1], the target named is T1, Peptidyl-prolyl cis-trans isomerase A (Homo sapiens, UniProt P62937). In words: Binding affinity to recombinant His-tagged Cyp18 (unknown origin) expressed in Escherichia coli BL21(DE3) assessed as inhibition of recombinant human His6-tagged calcineurin alpha phosphatase actvity using RII phosphopeptide as substrate by measuring amount of free phosphate at 10 uM preincubated for 20 mins followed by substrate addition measured after 30 mins in presence of human calmodulin by malachite green dye-based spectrophotometry relative to control.
Target sequence in this assay (P62937 whole entry, looked up): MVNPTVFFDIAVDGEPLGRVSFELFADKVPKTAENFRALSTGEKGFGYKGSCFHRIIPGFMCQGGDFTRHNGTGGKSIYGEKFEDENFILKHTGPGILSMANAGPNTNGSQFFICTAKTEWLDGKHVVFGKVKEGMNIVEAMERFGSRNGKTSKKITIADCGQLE

For assay [2], the target named is T1, Peptidyl-prolyl cis-trans isomerase A. In words: Binding affinity to recombinant His-tagged Cyp18 (unknown origin) expressed in Escherichia coli BL21(DE3) assessed as blue shift by UV absorbance method.
Target sequence in this assay (P62937 whole entry, looked up): as above
Assay [3] has the same target. Kind of assay: Inhibition of recombinant His-tagged Cyp18 (unknown origin) expressed in Escherichia coli BL21(DE3) up to 1000 nM.
Target sequence in this assay (P62937 whole entry, looked up): as above
Assay [4] has the same target. In words: Binding affinity to recombinant His-tagged Cyp18 (unknown origin) expressed in Escherichia coli BL21(DE3) by fluorescence analysis.
Target sequence in this assay (P62937 whole entry, looked up): as above
Assay [5] has the same target. In words: Binding affinity to Cyp18 (unknown origin) by fluorescence assay.
Target sequence in this assay (P62937 whole entry): as the sequence (P62937 whole entry, looked up) above
Assay [6] shares this target. In words: Binding affinity to recombinant His-tagged Cyp18 (unknown origin) expressed in Escherichia coli BL21(DE3) assessed as dissociation rate constant in presence of 20-fold excess of cyclosporin A by fluorescence assay.
Target sequence in this assay (P62937 whole entry, looked up): as above
Assay [7] has the same target. In words: Binding affinity to Cyp18 (unknown origin) assessed as association rate constant of fast phase by stopped flow method.
Target sequence in this assay (P62937 whole entry, looked up): as above

Regarding `C/C=C/C[C@@H](C)[C@@H](O)[C@H]1C(=O)N[C@@H](CC)C(=O)N(C)CC(=O)N(C)[C@@H](CC(C)C)C(=S)N[C@@H](C(C)C)C(=O)N(C)[C@@H](CC(C)C)C(=O)N[C@@H](C)C(=O)N[C@H](C)C(=O)N(C)[C@@H](CC(C)C)C(=O)N(C)[C@@H](CC(C)C)C(=O)N(C)[C@@H](C(C)C)C(=O)N1C`, the outcome in assay [1], in assay [2] and in assay [4] was Active. The inhibition entry in assay [3] is “Active”.
Broadly, the Kd is the concentration at which binding is half-saturated. Turning to `C/C=C/C[C@@H](C)[C@@H](O)[C@H]1C(=O)N[C@@H](CC)C(=O)N(C)CC(=O)N(C)[C@@H](CC(C)C)C(=O)N[C@@H](C(C)C)C(=O)N(C)[C@@H](CC(C)C)C(=O)N[C@@H](C)C(=S)N[C@H](C)C(=O)N(C)[C@@H](CC(C)C)C(=O)N(C)[C@@H](CC(C)C)C(=O)N(C)[C@@H](C(C)C)C(=O)N1C` (HELM PEPTIDE1{[Abu].[Sar].[meL].V.[meL].[C[C@H](N[*:1])C(=S)N[C@H](C)C(=O)[*:2]].[meL].[meL].[meV].[C/C=C/C[C@@H](C)[C@@H](O)[C@@H](C(=O)[*:2])N(C)[*:1]]}$PEPTIDE1,PEPTIDE1,1:R1-10:R2$$$V2.0), the result in assay [1], in assay [2] and in assay [4] was Active. In assay [5], this compound returned a dissociation constant (Kd) of 8.2 nM. Besides, the figures for the K in assay [6] and in assay [7] were 6.32 ×10⁻² /s and 8.34 ×10⁶ /M/s, respectively. The inhibition entry in assay [3] was “Active”.
For the compound `C/C=C/C[C@@H](C)[C@@H](O)[C@H]1C(=O)N[C@@H](CC)C(=O)N(C)CC(=O)N(C)[C@@H](CC(C)C)C(=S)N[C@@H](C(C)C)C(=O)N(C)[C@@H](CC(C)C)C(=O)N[C@@H](C)C(=S)N[C@H](C)C(=O)N(C)[C@@H](CC(C)C)C(=O)N(C)[C@@H](CC(C)C)C(=O)N(C)[C@@H](C(C)C)C(=O)N1C` (cyclo([Abu][Sar][X1][NMeL][AlaΨ(CSNH)dAla][NMeL][NMeL][NMeV][MeBmt])), the result in assay [1], in assay [2] and in assay [4] was Active. For the same compound, the inhibition entry in assay [3] was “Active”.
